According to ChEMBL document CHEMBL4382229, “Benzofuran derivatives and their anti-tubercular, anti-bacterial activities” (Eur J Med Chem, 2019):
≈ marks a conversion by molar mass, not a printed value.

Test system: Pseudomonas aeruginosa
Assay: Antibacterial activity against Pseudomonas aeruginosa assessed as zone of inhibition at 1 mg/ml after 32 hrs by agar-well diffusion method
Assay type: functional
Conditions: read-out: IZ

Row | SMILES | zone of inhibition at 1000 µg/mL [mm]
1 | Cc1ccc(-c2csc3nc(-c4cc5cc(Br)ccc5o4)cn23)cc1 | 6 to 23
2 | Brc1ccc2oc(-c3csc4nc(-c5cc6ccccc6o5)cn34)cc2c1 | 6 to 23
3 | Brc1ccc2oc(-c3cn4c(-c5cc6ccccc6o5)csc4n3)cc2c1 | 6 to 23
4 | c1ccc(-c2csc3nc(-c4cc5ccccc5o4)cn23)cc1 | 6 to 23
5 | Fc1ccc(-c2csc3nc(-c4cc5cc(Br)ccc5o4)cn23)cc1 | 6 to 23
6 | Brc1ccc2oc(-c3cn4c(-c5ccccc5)csc4n3)cc2c1 | 15 to 20
7 | c1ccc2oc(-c3cn4c(-c5cc6ccccc6o5)csc4n3)cc2c1 | 6 to 23
8 | Fc1ccc(-c2csc3nc(-c4cc5ccccc5o4)cn23)cc1 | 6 to 23
9 | Cc1ccc(-c2csc3nc(-c4cc5ccccc5o4)cn23)cc1 | 6 to 23
10 | Brc1ccc2oc(-c3cn4c(-c5cc6cc(Br)ccc6o5)csc4n3)cc2c1 | 6 to 23

Test system: Klebsiella pneumoniae
Assay: Antibacterial activity against Klebsiella pneumoniae assessed as zone of inhibition at 1 mg/ml after 32 hrs by agar-well diffusion method
Assay type: functional
Conditions: read-out: IZ

Row | SMILES | zone of inhibition at 1000 µg/mL [mm]
11 | Cc1ccc(-c2csc3nc(-c4cc5cc(Br)ccc5o4)cn23)cc1 | 6 to 23
12 | Brc1ccc2oc(-c3csc4nc(-c5cc6ccccc6o5)cn34)cc2c1 | 6 to 23
13 | Brc1ccc2oc(-c3cn4c(-c5cc6ccccc6o5)csc4n3)cc2c1 | 6 to 23
14 | c1ccc(-c2csc3nc(-c4cc5ccccc5o4)cn23)cc1 | 6 to 23
15 | Fc1ccc(-c2csc3nc(-c4cc5cc(Br)ccc5o4)cn23)cc1 | 6 to 23
16 | Brc1ccc2oc(-c3cn4c(-c5ccccc5)csc4n3)cc2c1 | 15 to 20
17 | c1ccc2oc(-c3cn4c(-c5cc6ccccc6o5)csc4n3)cc2c1 | 6 to 23
18 | Fc1ccc(-c2csc3nc(-c4cc5ccccc5o4)cn23)cc1 | 6 to 23
19 | Cc1ccc(-c2csc3nc(-c4cc5ccccc5o4)cn23)cc1 | 6 to 23
20 | Brc1ccc2oc(-c3cn4c(-c5cc6cc(Br)ccc6o5)csc4n3)cc2c1 | 6 to 23

Test system: Pseudomonas aeruginosa
Assay: Antibacterial activity against Pseudomonas aeruginosa by broth dilution method
Assay type: functional
Conditions: not given

Row | SMILES | MIC [µg/mL]
21 | O=c1oc2ccc(Br)cc2cc1-c1coc2ccc3ccccc3c12 | 6.25 to 100 (≈ 16 to 256 µM)
22 | O=c1oc2ccccc2cc1-c1coc2c1ccc1ccccc12 | 6.25 to 100 (≈ 20 to 320 µM)

Test system: Staphylococcus aureus
Assay: Antibacterial activity against Staphylococcus aureus assessed as zone of inhibition at 1 mg/ml after 32 hrs by agar-well diffusion method
Assay type: functional
Conditions: read-out: IZ

Row | SMILES | zone of inhibition at 1000 µg/mL [mm]
23 | Cc1ccc(-c2csc3nc(-c4cc5cc(Br)ccc5o4)cn23)cc1 | 6 to 23
24 | Brc1ccc2oc(-c3csc4nc(-c5cc6ccccc6o5)cn34)cc2c1 | 6 to 23
25 | Brc1ccc2oc(-c3cn4c(-c5cc6ccccc6o5)csc4n3)cc2c1 | 6 to 23
26 | c1ccc(-c2csc3nc(-c4cc5ccccc5o4)cn23)cc1 | 6 to 23
27 | Fc1ccc(-c2csc3nc(-c4cc5cc(Br)ccc5o4)cn23)cc1 | 6 to 23
28 | Brc1ccc2oc(-c3cn4c(-c5ccccc5)csc4n3)cc2c1 | 15 to 20
29 | c1ccc2oc(-c3cn4c(-c5cc6ccccc6o5)csc4n3)cc2c1 | 6 to 23
30 | Fc1ccc(-c2csc3nc(-c4cc5ccccc5o4)cn23)cc1 | 6 to 23
31 | Cc1ccc(-c2csc3nc(-c4cc5ccccc5o4)cn23)cc1 | 6 to 23
32 | Brc1ccc2oc(-c3cn4c(-c5cc6cc(Br)ccc6o5)csc4n3)cc2c1 | 6 to 23

Test system: Escherichia coli
Assay: Antibacterial activity against Escherichia coli assessed as zone of inhibition at 1 mg/ml after 32 hrs by agar-well diffusion method
Assay type: functional
Conditions: read-out: IZ

Row | SMILES | zone of inhibition at 1000 µg/mL [mm]
33 | Cc1ccc(-c2csc3nc(-c4cc5cc(Br)ccc5o4)cn23)cc1 | 6 to 23
34 | Brc1ccc2oc(-c3csc4nc(-c5cc6ccccc6o5)cn34)cc2c1 | 6 to 23
35 | Brc1ccc2oc(-c3cn4c(-c5cc6ccccc6o5)csc4n3)cc2c1 | 6 to 23
36 | c1ccc(-c2csc3nc(-c4cc5ccccc5o4)cn23)cc1 | 6 to 23
37 | Fc1ccc(-c2csc3nc(-c4cc5cc(Br)ccc5o4)cn23)cc1 | 6 to 23
38 | Brc1ccc2oc(-c3cn4c(-c5ccccc5)csc4n3)cc2c1 | 15 to 20
39 | c1ccc2oc(-c3cn4c(-c5cc6ccccc6o5)csc4n3)cc2c1 | 6 to 23
40 | Fc1ccc(-c2csc3nc(-c4cc5ccccc5o4)cn23)cc1 | 6 to 23
41 | Cc1ccc(-c2csc3nc(-c4cc5ccccc5o4)cn23)cc1 | 6 to 23
42 | Brc1ccc2oc(-c3cn4c(-c5cc6cc(Br)ccc6o5)csc4n3)cc2c1 | 6 to 23

Test system: Escherichia coli
Assay: Antibacterial activity against Escherichia coli by broth dilution method
Assay type: functional
Conditions: not given

Row | SMILES | MIC [µg/mL]
43 | O=c1oc2ccc(Br)cc2cc1-c1coc2ccc3ccccc3c12 | 6.25 to 100 (≈ 16 to 256 µM)
44 | O=c1oc2ccccc2cc1-c1coc2c1ccc1ccccc12 | 6.25 to 100 (≈ 20 to 320 µM)
